Results as given in patent publication US7799530B2, “Genetic polymorphisms associated with cardiovascular disorders and drug response, methods of detection and uses thereof” (Celera Corporation, priority 2005, dated 2010).

System: MI / coronary events in Scottish men with hypercholesterolemia
Assay: WOSCOPS nested case-control study: MI/CHD in pravastatin- vs placebo-treated patients stratified by SNP genotype
Type: in vivo, human
Conditions: for OR, CHD case vs control, Matched: placebo = ref 1.00, cases and controls matched for age and smoking; for OR, CHD case vs control, Adjusted: placebo = ref 1.00, matched and adjusted for hypertension, diabetes, BMI, LDL-C, HDL-C; for Risk Reduction by Statin (Pravastatin vs. Placebo) OR: odds ratio of MI, pravastatin- vs placebo-treated, heterozygous carriers of hCV3054799 only
Excerpt: In order to identify genetic markers associated with acute coronary events (e.g. MI, stroke, unstable angina, congestive heart failure, etc.) or response to statin treatment for the prevention of coronary events, samples were genotyped in two clinical trials: the Cholesterol and Recurrent Events (CARE) study (a randomized multicentral double-blinded trial on secondary prevention of acute coronary events with pravastatin; Sacks et al., Am. J. Cardiol. 68: 1436-1446[1991]), and the West of Scotland Coronary Prevention Study (WOSCOPS) study (Shepherd et al., N Eng J Med 333 (20), pp. 1301-7, Nov. 16, 1995; Packard et al., N Eng J Med 343 (16), pp. 1148-55, Oct. 19, 2000).
Genetic markers identified as associated with acute coronary events or response to statin treatment for the prevention of coronary events in the CARE samples were also genotyped in a second sample set, the West of Scotland Coronary Prevention Study (WOSCOPS). The design of the original WOSCOPS cohort and the nested case-control study have been described (Shepherd et al., N Eng J Med 333 (20), pp. 1301-7, Nov. 16, 1995; Packard et al., N Eng J Med 343 (16), pp. 1148-55, Oct. 19, 2000). The objective of the WOSCOPS trial was to assess pravastatin efficacy at reducing risk of primary MI or coronary death among Scottish men with hypercholesterolemia (fasting LDL cholesterol>155 mg/dl). Participants in the WOSCOPS study were 45-64 years of age and followed for an average of 4.9 years for coronary events. The nested case-control study included as cases all WOSCOPS patients who experienced a coronary event (confirmed nonfatal MI, death from coronary heart disease, or a revascularization procedure; N=580). Controls were age- and smoking-matched unaffected patients. All individuals included in the study had signed informed consent forms and the study protocol was approved by the IRBs. DNA was extracted and genotyped as described above.
The association of hCV3054799 with risk of MI in patients was tested in two clinical trials, CARE and WOSCOPS, with patients receiving treatment with either pravastatin or placebo. CARE was a secondary prevention trial (i.e., recurrent MI as endpoint) and WOSCOPS was a primary prevention trial. […] The analysis in WOSCOPS (a nested case-control study) was performed using the MI as an endpoint.
In both the CARE and WOSCOPS studies, an association analysis was performed for each of the two modes of inheritance, dominant and recessive. Additionally, a genotypic test (heterozygote v. major homozygote) and an allelic test of association were performed using Fisher's exact method. Estimates of odds ratios and corresponding ninety-five percent confidence intervals were calculated. The significance of the disease association for hCV3054799 with the overall (unstratified) population, and with the placebo- or pravastatin-treated patients are indicated in Table 8. […] In patients that are heterozygous carriers of the minor allele, the odds ratio for risk of MI relative to patients with no minor allele is 1.7, with a P value below 0.01 both studies. The odds ratio is approximately the same (1.6-1.7) when calculated for the dominant mode of inheritance (a genotype with one or two minor alleles vs. none), with a P value less than or equal to 0.01 in both studies.
Also analyzed was whether hCV3054799 is associated with response to statin treatment (specifically, a decreased risk of MI as a result of treatment with pravastatin). […] Heterozygous carriers in the placebo treatment group were used as a reference in determining the odds ratios. […] For comparison, the odds ratio for association of this SNP with MI risk in placebo-treated carriers is also presented, under the heading “MI/RMI risk estimation” (data from Table 8; again, heterozygous carriers).
In analyzing the CARE patients, statistical analysis was performed with SAS version 9. […]

CC[C@H](C)C(=O)O[C@H]1C[C@H](O)C=C2C=C[C@H](C)[C@H](CC[C@@H](O)C[C@@H](O)CC(=O)O)[C@H]21 [pravastatin]
OR, CHD case vs control, Matched (KIF6 hCV3054799 AA): 0.94
OR, CHD case vs control, Adjusted (KIF6 hCV3054799 AA): 0.91
OR, CHD case vs control, Matched (KIF6 hCV3054799 GG + GA): 0.50
OR, CHD case vs control, Adjusted (KIF6 hCV3054799 GG + GA): 0.50
Risk Reduction by Statin (Pravastatin vs. Placebo) OR: approximately 0.5
Risk Reduction by Statin (Pravastatin vs. Placebo) OR (listed as Pravastatin): 0.45
